Data taken from PMC10042540, “Targeting oncogenic KRasG13C with nucleotide-based covalent inhibitors” (eLife, 2023).

Tests used:
SOS = experiment: Guanine nucleotide-exchange factor assay (mantdGDP fluorescence); type: biochemical
Protocol: SOS-catalysed nucleotide exchange was monitored at 25 °C in a FluoroMax-3 spectrofluorometer (excitation at 360 nm, emission at 440 nm) in 20 mM HEPES (pH 7.5), 100 mM NaCl, 2 mM MgCl2, and 1 mM TCEP. 5 µM KRas1-169 was mixed with 10 µM mantdGDP and subsequently with different concentrations of SOS (0.25 µM and 0.5 µM) (Figure 3A; Figure 3—figure supplement 1).

pcRafS338 = experiment: Electroporation into HeLa cells, western blot quantification; type: cell-based, human; details: for pcRaf mean fold change: mean of cell lysates
Protocol: (§1) HeLa cells were obtained from the American Type Culture Collection (ATCC) and were cultured in DMEM medium (Gibco) supplemented with 10% fetal bovine serum (FBS) (PAN-Biotech) and 1% penicillin/streptomycin (Gibco). Cells were cultured in a humidified incubator at 37 °C in the presence of 5% CO2. The identity of the cells was validated by STR profiling and the cells were tested negative for mycoplasma contamination.
(§2) Electroporation of full-length KRas constructs (KRasWT, KRasG13C, KRasG13C-edaGDP, KRasG13C:acetyledaGDP and KRasG13C-edaGppCp) was performed based on the protocol described by [Alex et al., 2019] using the Neon Transfection System Kit (Thermo Fisher). For electroporation, 3 million cells per experiment were harvested by trypsinization, washed with PBS, and resuspended in 85 µL of the electroporation buffer R (Thermo Fisher). Increasing amounts of recombinant protein samples for each construct (0, 50, 100, 200 and 300 µg) were diluted 1:1 in buffer R followed by the addition of 30 µL of this protein master mix to the cell suspension. This cellular slurry was loaded into a […] Neon Pipette Tip (Thermo Fisher) and electroporated with 2x35 ms pulses at 1000 V. After electroporation, the cells were washed twice with PBS (15 mL) to remove non-internalized extracellular protein and the cell pellet was resuspended in 2 mL complete growth media. Cells were transferred into six-well tissue culture plates (Sarstedt) and incubated for 24 hr at 37 °C and 5% CO2 in a humidified incubator for recovery before being processed for western blotting analysis.
(§3) After recovery of the electroporation, cells were washed twice with ice-cold PBS and lysed in 100 µL of phosphatase and protease inhibitor containing RIPA buffer (Cell Signaling Technology). Cells were incubated on ice for 30 min and then harvested by scraping followed by centrifugation at 14,000 rpm for 10 min at 4 °C. Protein concentrations were determined using the Pierce BCA protein assay (Thermo) following the manufacturer’s recommended procedure. Equal amounts of protein (10 µg) were analyzed by SDS-PAGE and transferred to Immobilon-FL PVDF membranes (Merck Millipore) using Pierce 1-step transfer buffer (Thermo) and the Pierce Power Blotter (Thermo). Membranes were washed with ddH2O for 5 min, blocked with OdysseyBlocking Buffer TBS (Li-Cor) for 1 hr at room temperature and then incubated with primary antibodies diluted in OdysseyBlocking Buffer TBS overnight at 4 °C with gentle agitation. KRas (Sigma Aldrich, SAB1404011-100UG), pcRafS338 (CST, 9427), tAkt1 (CST, 2938), pAktS473 (CST, 4060), tErk (CST, 4696), pErkT202/Y204 (CST, 4370), pS6S235/236 (CST, 4858), and β-actin (CST, 4970/Sigma-Aldrich, A5441) antibodies were used to detect the individual proteins. After primary antibody incubation, membranes were washed three times with TBS-T (50 mM Tris, 150 mM NaCl, 0.05% Tween 20, pH 7.4) for 5 min before being incubated with secondary antibodies (anti-mouse IgG (H+L) (DyLight 680 Conjugate) (CST, 5470) / anti-rabbit IgG (H+L) (DyLight 800 4 X PEG Conjugate) (CST, 5151)) diluted in OdysseyBlocking Buffer TBS for 1 hr at room temperature with gentle agitation. After secondary antibody incubation, the membranes were washed three times for 5 min with TBS-T and then scanned using an OdysseyCLx imaging system (Li-Cor). Quantification of protein levels from western blots was performed using Empiria Studio (Li-Cor) (Figure 3B, C, Figure 3—figure supplements 6–9).

tAkt1 = experiment: as above; type: cell-based, human; details: for tAkt mean fold change: mean of cell lysates
Protocol: as §1, §2, §3

pErkT202/Y204 = experiment: as above; type: cell-based, human; details: for pErk mean fold change: mean of cell lysates
Protocol: as §1, §2, §3

pAktS473 = experiment: as above; type: cell-based, human; details: for pAkt mean fold change: mean of cell lysates
Protocol: as §1, §2, §3

pS6S235/236 = experiment: as above; type: cell-based, human; details: for pS6 mean fold change: mean of cell lysates
Protocol: as §1, §2, §3

tErk = experiment: as above; type: cell-based, human; details: for tErk mean fold change: mean of cell lysates
Protocol: as §1, §2, §3

[1] = tested on: Ras pathway (pcRaf, pAkt, pErk, pS6); experiment: Electroporation into HeLa cells, western blot of downstream signalling; type: cell-based, human; details: electroporation of 50-300 µg protein
Protocol: as §1, §2
After recovery of the electroporation, cells were washed twice with ice-cold PBS and lysed in 100 µL of phosphatase and protease inhibitor containing RIPA buffer (Cell Signaling Technology). Cells were incubated on ice for 30 min and then harvested by scraping followed by centrifugation at 14,000 rpm for 10 min at 4 °C. Protein concentrations were determined using the Pierce BCA protein assay (Thermo) following the manufacturer’s recommended procedure. Equal amounts of protein (10 µg) were analyzed by SDS-PAGE and transferred to Immobilon-FL PVDF membranes (Merck Millipore) using Pierce 1-step transfer buffer (Thermo) and the Pierce Power Blotter (Thermo). Membranes were washed with ddH2O for 5 min, blocked with OdysseyBlocking Buffer TBS (Li-Cor) for 1 hr at room temperature and then incubated with primary antibodies diluted in OdysseyBlocking Buffer TBS overnight at 4 °C with gentle agitation. […] Quantification of protein levels from western blots was performed using Empiria Studio (Li-Cor) (Figure 3B, C, Figure 3—figure supplements 6–9).

KRasG13C: recombinant oncogenic KRasG13C mutant protein, GDP-bound
SOS-catalysed nucleotide exchange (SOS; 5 µM KRas1-169, 10 µM mantdGDP, 0.25 or 0.5 µM SOS): efficiently catalysed nucleotide exchange
intrinsic nucleotide exchange rate (SOS; absence of SOS): drastically increased
pcRaf fold change (pcRafS338; 50 µg, Cell lysate 1): 1.43
pcRaf fold change (pcRafS338; 50 µg, Cell lysate 2): 2.59
pcRaf fold change (pcRafS338; 50 µg, Cell lysate 3): 1.91
pcRaf mean fold change (pcRafS338; 50 µg): 1.98
pcRaf fold change (pcRafS338; 100 µg, Cell lysate 1): 1.55
pcRaf fold change (pcRafS338; 100 µg, Cell lysate 2): 4.23
pcRaf fold change (pcRafS338; 100 µg, Cell lysate 3): 1.55
pcRaf mean fold change (pcRafS338; 100 µg): 2.44
pcRaf fold change (pcRafS338; 200 µg, Cell lysate 1): 1.46
pcRaf fold change (pcRafS338; 200 µg, Cell lysate 2): 6.14
pcRaf fold change (pcRafS338; 200 µg, Cell lysate 3): 1.74
pcRaf mean fold change (pcRafS338; 200 µg): 3.11
pcRaf fold change (pcRafS338; 300 µg, Cell lysate 1): 1.29
pcRaf fold change (pcRafS338; 300 µg, Cell lysate 2): 6.29
pcRaf fold change (pcRafS338; 300 µg, Cell lysate 3): 1.50
pcRaf mean fold change (pcRafS338; 300 µg): 3.03
tAkt fold change (tAkt1; 50 µg, Cell lysate 1): 1.94
tAkt fold change (tAkt1; 50 µg, Cell lysate 2): 0.93
tAkt fold change (tAkt1; 50 µg, Cell lysate 3): 1.69
tAkt mean fold change (tAkt1; 50 µg): 1.52
tAkt fold change (tAkt1; 100 µg, Cell lysate 1): 2.66
tAkt fold change (tAkt1; 100 µg, Cell lysate 2): 0.74
tAkt fold change (tAkt1; 100 µg, Cell lysate 3): 1.08
tAkt mean fold change (tAkt1; 100 µg): 1.49
tAkt fold change (tAkt1; 200 µg, Cell lysate 1): 2.05
tAkt fold change (tAkt1; 200 µg, Cell lysate 2): 1.29
tAkt fold change (tAkt1; 200 µg, Cell lysate 3): 1.44
tAkt mean fold change (tAkt1; 200 µg): 1.59
tAkt fold change (tAkt1; 300 µg, Cell lysate 1): 1.78
tAkt fold change (tAkt1; 300 µg, Cell lysate 2): 1.44
tAkt fold change (tAkt1; 300 µg, Cell lysate 3): 1.65
tAkt mean fold change (tAkt1; 300 µg): 1.62
pErk fold change (pErkT202/Y204; 50 µg, Cell lysate 1): 5.54
pErk fold change (pErkT202/Y204; 50 µg, Cell lysate 2): 1.80
pErk fold change (pErkT202/Y204; 50 µg, Cell lysate 3): 3.53
pErk mean fold change (pErkT202/Y204; 50 µg): 3.62
pErk fold change (pErkT202/Y204; 100 µg, Cell lysate 1): 6.18
pErk fold change (pErkT202/Y204; 100 µg, Cell lysate 2): 2.89
pErk fold change (pErkT202/Y204; 100 µg, Cell lysate 3): 3.58
pErk mean fold change (pErkT202/Y204; 100 µg): 4.22
pErk fold change (pErkT202/Y204; 200 µg, Cell lysate 1): 6.87
pErk fold change (pErkT202/Y204; 200 µg, Cell lysate 2): 3.48
pErk fold change (pErkT202/Y204; 200 µg, Cell lysate 3): 4.30
pErk mean fold change (pErkT202/Y204; 200 µg): 4.88
pErk fold change (pErkT202/Y204; 300 µg, Cell lysate 1): 9.07
pErk fold change (pErkT202/Y204; 300 µg, Cell lysate 2): 4.08
pErk fold change (pErkT202/Y204; 300 µg, Cell lysate 3): 5.76
pErk mean fold change (pErkT202/Y204; 300 µg): 6.30
pAkt fold change (pAktS473; 50 µg, Cell lysate 1): 1.68
pAkt fold change (pAktS473; 50 µg, Cell lysate 2): 1.22
pAkt fold change (pAktS473; 50 µg, Cell lysate 3): 2.21
pAkt mean fold change (pAktS473; 50 µg): 1.70
pAkt fold change (pAktS473; 100 µg, Cell lysate 1): 3.58
pAkt fold change (pAktS473; 100 µg, Cell lysate 2): 2.56
pAkt fold change (pAktS473; 100 µg, Cell lysate 3): 1.82
pAkt mean fold change (pAktS473; 100 µg): 2.65
pAkt fold change (pAktS473; 200 µg, Cell lysate 1): 4.98
pAkt fold change (pAktS473; 200 µg, Cell lysate 2): 2.01
pAkt fold change (pAktS473; 200 µg, Cell lysate 3): 1.89
pAkt mean fold change (pAktS473; 200 µg): 2.96
pAkt fold change (pAktS473; 300 µg, Cell lysate 1): 4.64
pAkt fold change (pAktS473; 300 µg, Cell lysate 2): 3.64
pAkt fold change (pAktS473; 300 µg, Cell lysate 3): 1.72
pAkt mean fold change (pAktS473; 300 µg): 3.33
pS6 fold change (pS6S235/236; 50 µg, Cell lysate 1): 1.14
pS6 fold change (pS6S235/236; 50 µg, Cell lysate 2): 1.57
pS6 fold change (pS6S235/236; 50 µg, Cell lysate 3): 1.40
pS6 mean fold change (pS6S235/236; 50 µg): 1.37
pS6 fold change (pS6S235/236; 100 µg, Cell lysate 1): 0.95
pS6 fold change (pS6S235/236; 100 µg, Cell lysate 2): 1.80
pS6 fold change (pS6S235/236; 100 µg, Cell lysate 3): 1.21
pS6 mean fold change (pS6S235/236; 100 µg): 1.32
pS6 fold change (pS6S235/236; 200 µg, Cell lysate 1): 1.17
pS6 fold change (pS6S235/236; 200 µg, Cell lysate 2): 2.22
pS6 fold change (pS6S235/236; 200 µg, Cell lysate 3): 1.06
pS6 mean fold change (pS6S235/236; 200 µg): 1.48
pS6 fold change (pS6S235/236; 300 µg, Cell lysate 1): 1.44
pS6 fold change (pS6S235/236; 300 µg, Cell lysate 2): 2.42
pS6 fold change (pS6S235/236; 300 µg, Cell lysate 3): 1.24
pS6 mean fold change (pS6S235/236; 300 µg): 1.70
tErk fold change (tErk; 50 µg, Cell lysate 1): 0.88
tErk fold change (tErk; 50 µg, Cell lysate 2): 1.05
tErk fold change (tErk; 50 µg, Cell lysate 3): 0.99
tErk mean fold change (tErk; 50 µg): 0.97
tErk fold change (tErk; 100 µg, Cell lysate 1): 0.44
tErk fold change (tErk; 100 µg, Cell lysate 2): 1.04
tErk fold change (tErk; 100 µg, Cell lysate 3): 1.00
tErk mean fold change (tErk; 100 µg): 0.83
tErk fold change (tErk; 200 µg, Cell lysate 1): 0.50
tErk fold change (tErk; 200 µg, Cell lysate 2): 1.05
tErk fold change (tErk; 200 µg, Cell lysate 3): 0.89
tErk mean fold change (tErk; 200 µg): 0.81
tErk fold change (tErk; 300 µg, Cell lysate 1): 0.97
tErk fold change (tErk; 300 µg, Cell lysate 2): 1.08
tErk fold change (tErk; 300 µg, Cell lysate 3): 0.89
tErk mean fold change (tErk; 300 µg): 0.98
downstream signalling (pcRaf, pAkt, pErk, pS6) [1]: concentration-dependent activation of the downstream signalling
